# Source: ChEMBL document CHEMBL1143950, “Antifungal and cytotoxic activities of some N-substituted aniline derivatives bearing a hetaryl fragment” (Bioorg Med Chem, 2008)
# Test system: Candida albicans
# Assay: Antifungal activity against Candida albicans ATCC 10231 by micro-broth dilution method
# Format: functional
row,SMILES,MIC [µg/mL]
1,Cc1ccc(NCc2cccn2C)cc1,> 250
2,Cc1ccc(NCc2cccs2)cc1,> 250
3,Cc1ccc(NCc2cccnc2)cc1,> 250
4,C=CCC(Nc1ccc(Cl)c(Cl)c1)c1ccco1 (stereo not given),> 250
5,C=CCC(Nc1ccccc1)c1cccs1 (stereo not given),> 250

# More lines, now with the values ahead:
row,MIC [µg/mL],SMILES
1,100,O=[N+]([O-])c1cccc(NCc2ccccn2)c1
2,> 250,C=CCC(Nc1ccccc1)c1ccsc1 (stereo not given)
3,> 250,C=CCC(Nc1ccc(C)cc1)c1cccs1 (stereo not given)

# Test system: Candida tropicalis
# Assay: Antifungal activity against Candida tropicalis C131 by micro-broth dilution method
# Format: functional
row,SMILES,MIC [µg/mL]
1,Cc1ccc(NCc2cccn2C)cc1,> 250
2,Cc1ccc(NCc2cccs2)cc1,> 250
3,Cc1ccc(NCc2cccnc2)cc1,> 250
4,C=CCC(Nc1ccc(Cl)c(Cl)c1)c1ccco1 (stereo not given),> 250
5,C=CCC(Nc1ccccc1)c1cccs1 (stereo not given),> 250

# More lines, now with the values ahead:
row,MIC [µg/mL],SMILES
1,100,O=[N+]([O-])c1cccc(NCc2ccccn2)c1
2,> 250,C=CCC(Nc1ccccc1)c1ccsc1 (stereo not given)
3,> 250,C=CCC(Nc1ccc(C)cc1)c1cccs1 (stereo not given)

# Test system: Saccharomyces cerevisiae
# Assay: Antifungal activity against Saccharomyces cerevisiae ATCC 9763 by microbroth dilution method
# Format: functional
row,SMILES,MIC [µg/mL]
1,Cc1ccc(NCc2cccn2C)cc1,> 250
2,Cc1ccc(NCc2cccs2)cc1,> 250
3,Cc1ccc(NCc2cccnc2)cc1,> 250
4,C=CCC(Nc1ccc(Cl)c(Cl)c1)c1ccco1 (stereo not given),> 250
5,C=CCC(Nc1ccccc1)c1cccs1 (stereo not given),> 250

# Results, then the compound that gave them:
row,MIC [µg/mL],SMILES
1,100,O=[N+]([O-])c1cccc(NCc2ccccn2)c1
2,> 250,C=CCC(Nc1ccccc1)c1ccsc1 (stereo not given)
3,> 250,C=CCC(Nc1ccc(C)cc1)c1cccs1 (stereo not given)

# Test system: Cryptococcus neoformans
# Assay: Antifungal activity against Cryptococcus neoformans ATCC 32264 by microbroth dilution method
# Format: functional
row,SMILES,MIC [µg/mL]
1,Cc1ccc(NCc2cccn2C)cc1,> 250
2,Cc1ccc(NCc2cccs2)cc1,> 250
3,Cc1ccc(NCc2cccnc2)cc1,> 250
4,C=CCC(Nc1ccc(Cl)c(Cl)c1)c1ccco1 (stereo not given),> 250
5,C=CCC(Nc1ccccc1)c1cccs1 (stereo not given),> 250

# Next, values leading:
row,MIC [µg/mL],SMILES
1,50,O=[N+]([O-])c1cccc(NCc2ccccn2)c1
2,250,C=CCC(Nc1ccccc1)c1ccsc1 (stereo not given)
3,> 250,C=CCC(Nc1ccc(C)cc1)c1cccs1 (stereo not given)

# Test system: Aspergillus fumigatus
# Assay: Antifungal activity against Aspergillus fumigatus ATCC 26934 by micro-broth dilution method
# Format: functional
row,SMILES,MIC [µg/mL]
1,Cc1ccc(NCc2cccn2C)cc1,> 250
2,Cc1ccc(NCc2cccs2)cc1,> 250
3,Cc1ccc(NCc2cccnc2)cc1,> 250
4,C=CCC(Nc1ccc(Cl)c(Cl)c1)c1ccco1 (stereo not given),> 250
5,C=CCC(Nc1ccccc1)c1cccs1 (stereo not given),> 250

# Next, values leading:
row,MIC [µg/mL],SMILES
1,200,O=[N+]([O-])c1cccc(NCc2ccccn2)c1
2,> 250,C=CCC(Nc1ccccc1)c1ccsc1 (stereo not given)
3,> 250,C=CCC(Nc1ccc(C)cc1)c1cccs1 (stereo not given)

# Test system: Aspergillus flavus
# Assay: Antifungal activity against Aspergillus flavus ATCC 9170 by micro-broth dilution method
# Format: functional
row,SMILES,MIC [µg/mL]
1,Cc1ccc(NCc2cccn2C)cc1,> 250
2,Cc1ccc(NCc2cccs2)cc1,> 250
3,Cc1ccc(NCc2cccnc2)cc1,> 250
4,C=CCC(Nc1ccc(Cl)c(Cl)c1)c1ccco1 (stereo not given),> 250
5,C=CCC(Nc1ccccc1)c1cccs1 (stereo not given),> 250

# The remaining lines, values ahead:
row,MIC [µg/mL],SMILES
1,100,O=[N+]([O-])c1cccc(NCc2ccccn2)c1
2,> 250,C=CCC(Nc1ccccc1)c1ccsc1 (stereo not given)
3,> 250,C=CCC(Nc1ccc(C)cc1)c1cccs1 (stereo not given)

# Test system: Trichophyton rubrum
# Assay: Antifungal activity against Trichophyton rubrum C113 by microbroth dilution method
# Format: functional
row,SMILES,MIC [µg/mL]
1,Cc1ccc(NCc2cccn2C)cc1,> 250
2,Cc1ccc(NCc2cccs2)cc1,25
3,Cc1ccc(NCc2cccnc2)cc1,250
4,C=CCC(Nc1ccc(Cl)c(Cl)c1)c1ccco1 (stereo not given),> 250
5,C=CCC(Nc1ccccc1)c1cccs1 (stereo not given),125

# Other lines, results leading:
row,MIC [µg/mL],SMILES
1,50,O=[N+]([O-])c1cccc(NCc2ccccn2)c1
2,250,C=CCC(Nc1ccccc1)c1ccsc1 (stereo not given)
3,12.5,C=CCC(Nc1ccc(C)cc1)c1cccs1 (stereo not given)

# Test system: Aspergillus niger
# Assay: Antifungal activity against Aspergillus niger ATCC 9029 by micro-broth dilution method
# Format: functional
row,SMILES,MIC [µg/mL]
1,Cc1ccc(NCc2cccn2C)cc1,> 250
2,Cc1ccc(NCc2cccs2)cc1,> 250
3,Cc1ccc(NCc2cccnc2)cc1,> 250
4,C=CCC(Nc1ccc(Cl)c(Cl)c1)c1ccco1 (stereo not given),> 250
5,C=CCC(Nc1ccccc1)c1cccs1 (stereo not given),> 250

# The remaining lines, values ahead:
row,MIC [µg/mL],SMILES
1,200,O=[N+]([O-])c1cccc(NCc2ccccn2)c1
2,> 250,C=CCC(Nc1ccccc1)c1ccsc1 (stereo not given)
3,> 250,C=CCC(Nc1ccc(C)cc1)c1cccs1 (stereo not given)

# Test system: Nannizzia gypsea
# Assay: Antifungal activity against Microsporum gypseum C115 by microbroth dilution method
# Format: functional
row,SMILES,MIC [µg/mL]
1,Cc1ccc(NCc2cccn2C)cc1,> 250
2,Cc1ccc(NCc2cccs2)cc1,12.5
3,Cc1ccc(NCc2cccnc2)cc1,250
4,C=CCC(Nc1ccc(Cl)c(Cl)c1)c1ccco1 (stereo not given),> 250
5,C=CCC(Nc1ccccc1)c1cccs1 (stereo not given),125

# More lines, now with the values ahead:
row,MIC [µg/mL],SMILES
1,50,O=[N+]([O-])c1cccc(NCc2ccccn2)c1
2,125,C=CCC(Nc1ccccc1)c1ccsc1 (stereo not given)
3,50,C=CCC(Nc1ccc(C)cc1)c1cccs1 (stereo not given)

# Test system: Trichophyton mentagrophytes
# Assay: Antifungal activity against Trichophyton mentagrophytes ATCC 9972 by micro-broth dilution method
# Format: functional
row,SMILES,MIC [µg/mL]
1,Cc1ccc(NCc2cccn2C)cc1,> 250
2,Cc1ccc(NCc2cccs2)cc1,50
3,Cc1ccc(NCc2cccnc2)cc1,250
4,C=CCC(Nc1ccc(Cl)c(Cl)c1)c1ccco1 (stereo not given),> 250
5,C=CCC(Nc1ccccc1)c1cccs1 (stereo not given),125

# Now from value to compound:
row,MIC [µg/mL],SMILES
1,50,O=[N+]([O-])c1cccc(NCc2ccccn2)c1
2,250,C=CCC(Nc1ccccc1)c1ccsc1 (stereo not given)
3,6.25,C=CCC(Nc1ccc(C)cc1)c1cccs1 (stereo not given)
